pIC50: −log10 of the molar value.
Assays:
Homo sapiens [1] = organism: Homo sapiens; test: Stimulatory activity against aggregation of human platelet induced by adenosine diphosphate; type: functional
Cavia porcellus [2] = organism: Cavia porcellus; test: Selectivity against 9,11-AZO-PGH2 induced contractions of smooth muscle guinea pig trachea; type: functional
Homo sapiens [3] = organism: Homo sapiens; test: Inhibitory activity against aggregation of human platelet induced by epinephrine 1; type: functional
Cavia porcellus [4] = organism: Cavia porcellus; test: Selectivity against histamine in smooth muscle of guinea pig trachea stimulated with histamine; type: functional; settings: Muscle tissue
Homo sapiens [5] = organism: Homo sapiens; test: Inhibitory activity against aggregation of human platelet induced by adenosine diphosphate; type: functional
Homo sapiens [6] = organism: Homo sapiens; test: Stimulatory activity against aggregation of human platelet induced by arachidonic acid; type: functional
Homo sapiens [7] = organism: Homo sapiens; test: Stimulatory activity against aggregation of human platelet induced by epinephrine 1; type: functional
Homo sapiens [8] = organism: Homo sapiens; test: Inhibitory activity against aggregation of human platelet induced by arachidonic acid; type: functional; settings: read-out: I50
Homo sapiens [9] = organism: Homo sapiens; test: Inhibitory activity against aggregation of human platelet induced by epinephrine 2; type: functional
Rattus norvegicus = organism: Rattus norvegicus; test: Direct effect on rat stomach strip (RSS) preparation; type: functional
Thromboxane-A synthase [10] = molecular target: T1, Thromboxane-A synthase (Homo sapiens, UniProt P24557); test: Inhibition of human platelet Thromboxane synthetase; settings: read-out: I50
T1 sequence (P24557 whole entry): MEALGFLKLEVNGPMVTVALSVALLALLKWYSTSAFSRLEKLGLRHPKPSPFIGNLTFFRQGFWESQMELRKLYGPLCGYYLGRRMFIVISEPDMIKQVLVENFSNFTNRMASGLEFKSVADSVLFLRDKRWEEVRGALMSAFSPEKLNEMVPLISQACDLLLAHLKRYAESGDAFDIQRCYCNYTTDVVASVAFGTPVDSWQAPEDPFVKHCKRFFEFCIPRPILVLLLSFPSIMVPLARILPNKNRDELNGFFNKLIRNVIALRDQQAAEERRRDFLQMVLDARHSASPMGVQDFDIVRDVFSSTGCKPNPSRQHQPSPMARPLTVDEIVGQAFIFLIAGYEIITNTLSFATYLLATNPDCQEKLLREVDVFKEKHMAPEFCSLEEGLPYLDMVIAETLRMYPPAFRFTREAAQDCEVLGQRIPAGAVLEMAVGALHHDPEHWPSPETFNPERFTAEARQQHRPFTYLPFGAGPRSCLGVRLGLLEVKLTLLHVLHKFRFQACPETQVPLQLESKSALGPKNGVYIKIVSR

Homo sapiens [11] = organism: Homo sapiens; test: Stimulatory activity against aggregation of human platelet induced by epinephrine 2; type: functional
[12] = molecular target: T2, Thromboxane-A synthase (Homo sapiens) (UniProt P24557); settings: 1000 uM
T2 sequence (whole entry): T1 sequence (P24557 whole entry)
Description: Inhibitory activity against human platelet Thromboxane synthetase at a dose of 1000 uM

Homo sapiens [13] = organism: Homo sapiens; test: stimulatory activity against aggregation of human platelet induced by adenosine diphosphate; type: functional
Homo sapiens [14] = organism: Homo sapiens; test: stimulatory activity against aggregation of human platelet induced by epinephrine 1; type: functional
Homo sapiens [15] = organism: Homo sapiens; test: stimulatory activity against aggregation of human platelet induced by arachidonic acid; type: functional
Homo sapiens [16] = organism: Homo sapiens; test: stimulatory activity against aggregation of human platelet induced by epinephrine 2; type: functional
Thromboxane-A synthase [17] = molecular target: T1, Thromboxane-A synthase; test: Inhibitory activity against human platelet Thromboxane synthetase; settings: read-out: I 50

Structure (SMILES)	pIC50 (Cavia porcellus [2]; read-out: I50)	pIC50 (Homo sapiens [3]; Homo sapiens, read-out: I50)	pIC50 (Cavia porcellus [4]; read-out: I50)	pIC50 (Homo sapiens [5]; Homo sapiens, read-out: I50)	pIC50 (Homo sapiens [8]; Homo sapiens)	pIC50 (Homo sapiens [9]; Homo sapiens, read-out: I50)	A50 (Rattus norvegicus)	pIC50 (Thromboxane-A synthase [10])	pIC50 (Homo sapiens [8])	pIC50 (Homo sapiens [9]; read-out: I50)	also measured
CCCCC[C@H](O)/C=C/[C@H]1C2CCC(O2)[C@H]1C/C=C\CCCC(=O)O (stereo partly specified)	5.68	< 3.00	< 5.00	< 3.00	5.04	6.22	0.22 µM	< 3.00	–	–	A50 (Homo sapiens [1]): 20 µM; A50 (Homo sapiens [6]): 20 µM; A50 (Homo sapiens [7]): 20 µM; A50 (Homo sapiens [11]): 20 µM
CCCCC[C@H](O)/C=C/[C@@H]1C2CCC(O2)[C@H]1C/C=C\CCCC(=O)O (stereo partly specified)	6.47	5.66	5.62	5.80	6.52	5.38	2.9 µM	3.00	–	–	A50 (Homo sapiens [1]): 30 µM; A50 (Homo sapiens [6]): 30 µM; A50 (Homo sapiens [7]): 30 µM; A50 (Homo sapiens [11]): 30 µM
CCCCC[C@H](O)/C=C/[C@H]1C2CCC(O2)[C@@H]1C/C=C\CCCC(=O)O (stereo partly specified)	5.66	< 3.00	< 5.00	< 3.00	4.64	4.25	0.0009 µM	< 3.00	–	–	A50 (Homo sapiens [1]): 0.26 µM; A50 (Homo sapiens [6]): 0.26 µM; A50 (Homo sapiens [7]): 0.26 µM; inhibition [12]: 71%; A50 (Homo sapiens [11]): 0.26 µM
CCCCC[C@@H](O)/C=C/[C@H]1C2CCC(O2)[C@H]1C/C=C\CCCC(=O)O (stereo in doubt; 2b)	< 5.00	< 3.00	< 5.00	< 3.00	–	3.89	>10 µM	< 3.00	3.44	–	–
CCCCC[C@H](O)/C=C/[C@@H]1C2CCC(O2)[C@@H]1C/C=C\CCCC(=O)O (stereo in doubt; 2c)	–	< 3.00	–	–	–	5.22	–	< 3.00	3.51	–	pIC50 (Homo sapiens [5]; read-out: I50): < 3.00
CCCCC[C@@H](O)/C=C/[C@@H]1C2CCC(O2)[C@@H]1C/C=C\CCCC(=O)O (stereo in doubt; 2d)	–	–	–	< 3.00	3.85	–	–	3.25	–	–	–
CCCCC[C@@H](O)/C=C/[C@@H]1C2CCC(O2)[C@@H]1C/C=C\CCCC(=O)O (stereo in doubt; 3a)	< 5.00	–	< 5.00	–	–	–	0.0015 µM	3.00	–	–	A50 (Homo sapiens [13]): 2 µM; A50 (Homo sapiens [14]): 2 µM; A50 (Homo sapiens [15]): 2 µM; A50 (Homo sapiens [16]): 2 µM
CCCCC[C@H](O)/C=C/[C@@H]1C2CCC(O2)[C@@H]1C/C=C\CCCC(=O)O (stereo in doubt; 3b)	6.92	–	< 5.00	–	–	–	0.4 µM	3.00	6.22	5.12	pIC50 (Homo sapiens [3]; read-out: I50): 3.17; pIC50 (Homo sapiens [5]; read-out: I50): 3.51
CCCCC[C@@H](O)/C=C/[C@H]1C2CCC(O2)[C@H]1C/C=C\CCCC(=O)O (stereo in doubt; 3d)	–	–	–	–	–	–	–	–	4.03	3.77	–
CCCCC[C@@H](O)/C=C/[C@@H]1C2CCC(O2)[C@H]1C/C=C\CCCC(=O)O (stereo in doubt; 4a)	–	–	–	–	–	–	0.51 µM	–	5.38	–	pIC50 (Cavia porcellus [2]; read-out: I 50): 4.19; pIC50 (Homo sapiens [3]; read-out: I 50): < 3.00; pIC50 (Cavia porcellus [4]; read-out: I 50): < 5.00; pIC50 (Homo sapiens [5]; read-out: I 50): 3.82; pIC50 (Homo sapiens [9]; read-out: I 50): 5.00; pIC50 (Thromboxane-A synthase [17]): 3.11
CCCCC[C@@H](O)/C=C/[C@H]1C2CCC(O2)[C@@H]1C/C=C\CCCC(=O)O (stereo in doubt; 4d)	–	3.17	–	< 3.00	–	–	–	3.33	3.00	3.85	–
CCCCC[C@@H](O)/C=C/[C@H]1C2CCC(O2)[C@@H]1C/C=C\CCCC(=O)O (stereo in doubt; 5b)	5.31	–	< 5.00	–	–	–	0.88 µM	< 3.00	5.02	6.15	pIC50 (Homo sapiens [3]; read-out: I50): < 3.00
CCCCC[C@@H](O)/C=C/[C@@H]1C2CCC(O2)[C@H]1C/C=C\CCCC(=O)O (stereo in doubt; 5d)	–	< 3.00	–	< 3.00	–	4.28	–	< 3.00	4.02	–	–
